The source of these data is patent US10785975B2, “Water and feed antimicrobial preservative” (priority 2009, dated 2020).

For experiment [1], the system named is Salmonella typhimurium. Briefly: Study 6: capric acid in acetic or propionic acid against salmonella in poultry feed. It is filed as cell-based. Conditions: Capric/Acetic acids, 24 hours after treatment. As to the method:
Commercial poultry feed amended with Salmonella typhimurium was treated with 1 or 3 kg/MT of the solutions listed below. Twenty four hours after treatment, 10 gr of feed was added to 90 ml Butterfield buffer, mixed and then 100 ul of the solution was plated on Standard Plate agar (triplicate plates). Plates were incubated at 37° C. for 24 hours prior to enumeration.

The test system of experiment [2] is Salmonella typhimurium. Briefly: Example 3: buffered organic acid mixtures with pelargonic acid in water. It is filed as cell-based. As to the method: Procedure: Propionic and acetic acids were buffered with ammonium hydroxide to a pH of 3 and combined with pelargonic in the ratios above. Acid content of the buffered solutions was determined by weight to weight ratio calculation (weight of acid/total weight of buffered solution) and adjusted to provide an equal acid value for each treatment. […] The pHs of the deionized water solutions were recorded and any problems with solubility noted.
100 ul of a nutrient broth culture of Salmonella typhimurium was added to each dilution tube. After addition, tubes were vortexed and allowed to stand. At 4 and 24 hours after addition of the inoculum, 100 ul of the solution was plated on Standard Plate agar (triplicate plates). Plates were incubated at 37° C. for 24 hours prior to enumeration. The minimum effective dose of each acid was determined by linear regression.

Experiment [3] has as its system Salmonella typhimurium. Briefly: Study 4: pelargonic acid (1-20%) in buffered propionic or acetic acid in water. It is filed as cell-based. Here is the method: Propionic and acetic acids were buffered with ammonium hydroxide to a pH of 3 and combined with pelargonic in the ratios listed. Acid content of the buffered solutions was determined by weight to weight ratio calculation (weight of acid/total weight of buffered solution) and adjusted to provide an equal acid value for each treatment. […] The pHs of the deionized water solutions were recorded and any problems with solubility noted.
100 ul of a nutrient broth culture of Salmonella typhimurium was added to each dilution tube. After addition, tubes were vortexed and allowed to stand. At 4 and 24 hours after addition of the inoculum, 100 ul of the solution was plated on Standard Plate agar (triplicate plates). Plates were incubated at 37° C. for 24 hours prior to enumeration.

Experiment [4] relates to Salmonella typhimurium. Briefly: Example 1: effect of pH buffering of acetic and propionic acid on antimicrobial activity in water. In kind it is cell-based. The method in brief: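 Acetic and propionic acids buffered with ammonium hydroxide to pH 1–7 in water, then inoculated with Salmonella typhimurium broth culture. Survivors plated at 4 and 24 h, counted after 24 h at 37° C; minimum effective dose derived by linear regression.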

Another experiment concerns M. gypseum. The settings on record: acids tested independently, cited from earlier work.
Where [5] appears, read: Product Concentration 0.025 (% total acid solution in water).
[6] abbreviates: Product Concentration 0.05 (% total acid solution in water).
The mark [7] stands for this setting: Product Conc. 0.025 (% total acid solution in water), 4 hr.
Where [8] appears, read: Product Conc. 0.025 (% total acid solution in water).
The mark [9] stands for this setting: Product Conc. 0.05 (% total acid solution in water), 4 hr.
Where [10] appears, read: Product Conc. 0.05 (% total acid solution in water).
[11] abbreviates: Product Conc. 0.075 (% total acid solution in water), 4 hr.
Setting [12] is: Product Conc. 0.075 (% total acid solution in water).
Where [13] appears, read: Product Conc. 0.1 (% total acid solution in water), 4 hr.
[14] abbreviates: Product Conc. 0.1 (% total acid solution in water).
Where [15] appears, read: Product Conc. 0.025 (% acid solution in water), 4 hr.
Where [16] appears, read: Product Conc. 0.025 (% acid solution in water), 24 hr.
[17] abbreviates: Product Conc. 0.05 (% acid solution in water), 4 hr.
Where [18] appears, read: Product Conc. 0.05 (% acid solution in water), 24 hr.
Setting [19] is: Product Conc. 0.075 (% acid solution in water), 4 hr.
[20] abbreviates: Product Conc. 0.075 (% acid solution in water), 24 hr.
[21] abbreviates: Product Conc. 0.1 (% acid solution in water), 4 hr.
Setting [22] is: Product Conc. 0.1 (% acid solution in water), 24 hr.

Read-outs that look alike come from different tables or passages of the source.

`CC(=O)O` [Acetic acid]: in the experiment on Salmonella typhimurium [1] (1 kg/ton), the “% Reduction” value was determined as 41.3% and the cfu/g stood at 3367 cfu/g. In the experiment on Salmonella typhimurium [1] (3 kg/ton), the “% Reduction” value is 54.6% and the cfu/g is reported as 2600 cfu/g. Moreover, the “MIC at 4 HR” value in the experiment on Salmonella typhimurium [2] (Minimum Inhibitory Concentration of Pelargonic when mixed with acetic or propionic acid (buffered to pH 3), by linear regression, 4 hr) worked out at 0.171.

Consider `CCC(=O)O` [Propionic pH 3, Propionic acid], for which the “Salmonella at time Interval 4 hr % reduction” value in the experiment on Salmonella typhimurium [3] (setting [5]) was 29%; with Salmonella typhimurium [3] (setting [6]) it was 29%; in the experiment with Salmonella typhimurium [2] (setting [7]), 25%; with Salmonella typhimurium [2] (setting [9]) it was 42%; in the experiment on Salmonella typhimurium [2] (setting [11]) it was 25%; with Salmonella typhimurium [2] (setting [13]), 44%. Also, the “Salmonella at time Interval 4 hr % reduction” value in the experiment on Salmonella typhimurium [4] (setting [15]) is on record as 2%; in the experiment on Salmonella typhimurium [4] (setting [17]), 44%; with Salmonella typhimurium [4] (setting [19]), 35%; in the experiment with Salmonella typhimurium [4] (setting [21]), 60%. In addition, the “Salmonella at time Interval 4 hr cfu/g” value is 990 cfu/g in the experiment on Salmonella typhimurium [3] (setting [5]); 1000 cfu/g in the experiment on Salmonella typhimurium [3] (setting [6]); 1133 cfu/g in the experiment on Salmonella typhimurium [2] (setting [7]); 880 cfu/g in the experiment on Salmonella typhimurium [2] (setting [9]); 1133 cfu/g in the experiment with Salmonella typhimurium [2] (setting [11]); 857 cfu/g in the experiment on Salmonella typhimurium [2] (setting [13]). For the same compound, the “Salmonella at time Interval 4 hr cfu/g” value in the experiment with Salmonella typhimurium [4] (setting [15]) amounted to 1467 cfu/g; in the experiment with Salmonella typhimurium [4] (setting [17]) it was 847 cfu/g; in the experiment with Salmonella typhimurium [4] (setting [19]) it was 973 cfu/g; in the experiment on Salmonella typhimurium [4] (setting [21]), 603 cfu/g. The “Salmonella at time Interval 24 hr % reduction” value in the experiment with Salmonella typhimurium [3] (setting [5]) is 91%; in the experiment with Salmonella typhimurium [3] (setting [6]), 96%; in the experiment with Salmonella typhimurium [2] (setting [8]) it was 95%; in the experiment on Salmonella typhimurium [2] (setting [10]), 99%; in the experiment with Salmonella typhimurium [2] (setting [12]) it was 99%; in the experiment with Salmonella typhimurium [2] (setting [14]), 99%. For the same compound, the “Salmonella at time Interval 24 hr % reduction” value was 84% in the experiment with Salmonella typhimurium [4] (setting [16]), 93% in the experiment with Salmonella typhimurium [4] (setting [18]), 95% with Salmonella typhimurium [4] (setting [20]) and 98% in the experiment on Salmonella typhimurium [4] (setting [22]). Moreover, the “Salmonella at time Interval 24 hr cfu/g” value stood at 130 cfu/g in the experiment on Salmonella typhimurium [3] (setting [5]); 50 cfu/g in the experiment on Salmonella typhimurium [3] (setting [6]); 70 cfu/g in the experiment with Salmonella typhimurium [2] (setting [8]); 17 cfu/g with Salmonella typhimurium [2] (setting [10]); 20 cfu/g in the experiment with Salmonella typhimurium [2] (setting [12]); 13 cfu/g with Salmonella typhimurium [2] (setting [14]). For the same compound, the “Salmonella at time Interval 24 hr cfu/g” value is 190 cfu/g in the experiment on Salmonella typhimurium [4] (setting [16]), 83 cfu/g with Salmonella typhimurium [4] (setting [18]), 60 cfu/g with Salmonella typhimurium [4] (setting [20]) and 27 cfu/g with Salmonella typhimurium [4] (setting [22]). For the same compound, the “MIC at 4 Hr” value in the experiment with Salmonella typhimurium [4] (Minimum Inhibitory Concentrations, by linear regression over 0.025-0.1% acid solutions, 4 hr, pH 3) stood at 0.149. The “MIC at 24 HR” value against Salmonella typhimurium [4] (Minimum Inhibitory Concentrations, by linear regression over 0.025-0.1% acid solutions, 24 hr, pH 3) was determined as 0.069.

Turning to `CCCCCCCCCC(=O)O` [capric acid], the “minimum inhibitory concentration (MTC) to prevent growth of M. gypseum” value with M. gypseum (in liquid media) is 75 µg/mL; with M. gypseum (on solid media), 20 µg/mL.
